Experimental findings from US20090123501A1, “INHIBITION OF THE SH2-DOMAIN CONTAINING PROTEIN TYR-PHOSPHATASE, SHP-1, TO ENHANCE VACCINES” (Baylor College of Medicine, priority 2007, published 2009) are described below.

What all share (type): cell-based, murine
One data set relates to SHP-1 mRNA. Kind of data set: SHP-1 mRNA knock-down by quantitative RT-PCR in RAW cells. As to conditions: relative to no virus treatment. The source says: Two mouse SHP-1 specific small hairpin RNAs (shRNA) sequences, 272 and 1149, (referred to by their nucleotide position from the start site of the coding sequence in Genbank mRNA Accession #BC012660) were designed and cloned into the adenoviral vector pAd-BLOCK-iT-DEST RNAi (Invitrogen, Carlsbad, Calif.) which provides U6 polymerase […] promoter-driven expression of the shRNA. The exemplary shRNA sequences Ad5-shRNA#1149 (SEQ ID NO:11) and Ad5-shRNA#272 (SEQ ID NO:12) are provided as follows: […] (SEQ ID NO:11) and […] (SEQ ID NO:12), wherein sequence underlined in the shRNA is the exemplary SHP-1 specific palandromic 21-mer. Adenovirus carrying the appropriate sequence were produced and expanded in HEK-293 cells (ATCC Manassas, Va.). These viruses were then plaque purified and the ability to knock-down SHP-1 mRNA was tested in RAW cells, a murine macrophage-like cell line, by quantitative RT-PCR and are shown as a percent of the no virus treatment (FIG. 2A and FIG. 2B). Adenovirus expressing green fluorescent protein was used as a negative control for viral treatment (FIG. 2C). […] The ability of this shRNA to knock down SHP-1 protein was examined by western blot (FIG. 2D). A large scale, high titer, preparation of Ad-shRNA#1149 was produced by the Viral Vector Core Laboratory at Baylor College of Medicine and used in subsequent studies.

The next data set relates to endogenous SHP-1 protein. In words: Knock-down of endogenous SHP-1 protein in D2SC/1 cells, western blot with densitometry. As to conditions: D2SC/1 cells, 40,000 viral particles/cell. As to the method:
The high titer adenoviral preparation of SHP-1 specific Ad-shRNA#1149 (referred to from this point on as Ad5-SHP-1-shRNA), produced in the Viral Vector Core Laboratory at Baylor College of Medicine, was tested for its ability to knock-down endogenous SHP-1 protein in D2SC/1 cells, a murine dendritic-like cell line. […] A titration of Ad5-SHP-1 shRNA viral particles was performed and SHP-1 protein expression was determined by western blot (FIG. 3). […] This dose was chosen for subsequent studies using mouse bone marrow derived dendritic cells (BMDCs).
FIG. 3 describes the knock-down of endogenous SHP-1 using high titer Ad5-SHP-1 shRNA. SHP-1 protein expression was measured in D2SC/1 cells following infection with Ad5-SHP-1 at varying doses as shown. Protein levels were analyzed by western blot with a SHP-1 specific antibody. As controls, SHP-1 expression is shown for uninfected cells and those infected with the Ad5-scrambled shRNA. The blot was also probed with a calnexin specific antibody as a loading control. Densitometry analysis of the western is shown below as a percentage of SHP-1 expression level relative to cells infected with Ad5-scrambled shRNA.
(In general: In western blotting, separated proteins are transferred to a membrane and probed.)

A further data set concerns D2SC/1 cells. Kind of data set: Cell death of D2SC/1 cells after adenoviral infection. The conditions noted are these: D2SC/1 cells, 40,000 viral particles/cell.

Regarding “CACCGGAGCATGACACAGCAGAATACGAATATTCTGCTGTGTCATGCTCC (chemistry not given here) [Ad5-SHP-1-shRNA]”, the “reduction in SHP-1 mRNA” value in the data set with SHP-1 mRNA was greater than 5 fold reduction. In addition, in the data set on endogenous SHP-1 protein, the “decrease in endogenous SHP-1 protein” value is 95%. In addition, in the data set with D2SC/1 cells, the cell death entry is recorded as “minimal cell death”.
